Source: ChEMBL document CHEMBL3137667, “[Drug-induced liver injury; fourteenth updated edition of the bibliographic database of liver injuries and related drugs]” (Gastroenterol Clin Biol, 2004)

Key:
[1] = human
[2] = human; remark: listed apart in the source
[3] = Times to onset, minimal and maximal, observed in the indexed observations. [column 'DELAI' in source]; settings: human
[4] = Presence of at least one case with successful reintroduction. [column 'REINT' in source]; settings: human
[5] = human; remark: listed apart in the source
[6] = human; remark: listed apart in the source
[7] = Proposed mechanism(s) of liver damage. [column 'MEC' in source]; settings: human
[8] = human; remark: listed apart in the source
[9] = human; remark: listed apart in the source
[10] = human, serum
[11] = human, serum, 4383 h
[12] = human; remark: listed apart in the source
[13] = Comments (NB not yet translated). [column 'COMMENTAIRES' in source]; settings: human
[14] = Highest frequency of moderate liver toxicity observed during clinical trials, expressed as a percentage. [column '% BIOL' in source]; settings: human
[15] = human; remark: listed apart in the source
[16] = human; remark: listed apart in the source
[17] = Highest frequency of acute liver toxicity observed during clinical trials, expressed as a percentage. [column '% AIGUE' in source]; settings: human
[18] = human, serum; remark: listed apart in the source
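For Hepatotoxicity (association with vascular disease) in this document: count of indexed literature references reporting vascular liver injury in humans, e.g. peliosis hepatitis, hepatic veno-occlusive disease or Budd-Chiari syndrome.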
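For Hepatotoxicity (benign tumour) in this document: value is a count of indexed literature references citing a benign tumour confirmed by histopathology.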
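For Hepatotoxicity (choleostasis) in this document: human cholestatic liver injury, shown by histopathology or by peak ALT or AST elevation over alkaline phosphatase ratio below 2, value counts indexed literature reports.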
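For Hepatotoxicity (chronic liver disease) in this document: chronic liver injury confirmed by histopathology or persistently raised serum aminotransferase activity beyond 6 months, value given as the count of indexed literature references.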
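For Hepatotoxicity (cirrhosis) in this document: value is a count of indexed literature references reporting cirrhosis confirmed by histopathology.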
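For Hepatotoxicity (cytolytic) in this document: human cytolytic liver injury, shown by histopathology or by a ratio above 5 of peak ALT or AST elevation to alkaline phosphatase elevation, value counts indexed references.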
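For Hepatotoxicity (granulomatous hepatitis) in this document: value is a count of indexed literature references reporting granulomatous liver disease confirmed by histopathology.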
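For Hepatotoxicity (malignant tumour) in this document: malignant tumour confirmed by histopathology, value gives the count of indexed literature references reporting it.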
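For Hepatotoxicity (severe hepatitis) in this document: human clinical data: severe hepatitis, meaning potentially life-threatening liver failure or clinically observed cases, the value counts how many indexed literature references report it.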
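For Hepatotoxicity (steatosis) in this document: steatosis confirmed by histopathology, value is the count of indexed references.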

Row | Compound | Hepatotoxicity (severe hepatitis) ([1]; Liver) | Hepatotoxicity (time to onset) [3] | Hepatotoxicity (successful reintroduction) [4] | Hepatotoxicity (benign tumour) [5] | Hepatotoxicity (malignant tumour) [8] | Hepatotoxicity (steatosis) [9] | Hepatotoxicity (moderate) [10] | Hepatotoxicity (chronic liver disease) [11] | Hepatotoxicity (comment) [13] | Hepatotoxicity (moderate) ([14]; Liver) | Hepatotoxicity (association with vascular disease) [15] | Hepatotoxicity (cirrhosis) [16] | Hepatotoxicity (severe hepatitis) [1] | Hepatotoxicity (cytolytic) [2] | Hepatotoxicity (granulomatous hepatitis) [6] | Hepatotoxicity (mechanism) [7] | Hepatotoxicity (acute) [17] | Hepatotoxicity (acute) [18] | Hepatotoxicity (choleostasis) [12] | Hepatotoxicity (moderate) [14] | further results
1 | COc1cc(Cc2cnc(N)nc2N)cc(OC)c1OC.Cc1cc(NS(=O)(=O)c2ccc(N)cc2)no1 [CO-TRIMOXAZOLE] | 11 | 2 hours - 2 months | yes | 0 | 0 | 1 | 46 | 3 | RC/CEFADROXIL/SULFASALAZINE #CBP AC_ANTI-ML | 53.8% | 0 | 0 | – | – | – | – | – | – | – | – | Hepatotoxicity (cytolytic) ([2]; Liver): 17; Hepatotoxicity (granulomatous hepatitis) ([6]; Liver): 1; Hepatotoxicity (mechanism) ([7]; Liver): Allergic, Dose-dependant, Toxic Metabolite; Hepatotoxicity (choleostasis) ([12]; Liver): 35
2 | Clc1ccc(C(c2ccccc2Cl)C(Cl)Cl)cc1 (centres undefined) [MITOTANE] | – | – | yes | 0 | 0 | 0 | 5 | 0 | INDUCTION_ENZYMATIQUE | – | 0 | 0 | 0 | 0 | 0 | Dose-dependant | 0% | 0 | 0 | 0% | –
3 | C=C[C@H]1C[N@@]2CC[C@H]1C[C@H]2[C@H](O)c1ccnc2ccc(OC)cc12 [QUININE] | 0 | < 1 day - 2 years | yes | 0 | 0 | 0 | 2 | 0 | AC_ANTI-N | 15.4% | 0 | 0 | – | 3 | 4 | Allergic | – | – | 2 | – | –
4 | C=C[C@H]1C[N@@]2CC[C@H]1C[C@@H]2[C@@H](O)c1ccnc2ccc(OC)cc12 [QUINIDINE] | 2 | 1 day - 7 months | yes | 0 | 0 | 0 | 5 | 1 | RC/PRAJMALINE | 2% | 0 | 0 | – | 12 | 11 | Allergic | – | – | 12 | – | –
5 | CCN(CCCc1ccccc1)CCCc1ccccc1 [ALVERINE] | – | 4 days - 40 days | yes | 0 | 0 | 0 | 0 | 0 | AC_ANTI-N | – | 0 | 0 | 0 | 2 | 0 | – | 0% | 2 | 0 | 0% | –
6 | C[C@]12CC[C@@H]3c4ccc(OC(=O)N(CCCl)CCCl)cc4CC[C@H]3[C@@H]1CC[C@@H]2O [ESTRAMUSTINE] | – | 1 month | yes | 0 | 0 | 1 | 3 | 1 | NASH | – | 0 | 0 | 0 | 1 | 0 | – | 2% | 2 | 0 | 2% | –
7 | CC1(C)S[C@@H]2[C@H](NC(=O)[C@H](C(=O)O)c3ccsc3)C(=O)N2[C@H]1C(=O)O [TICARCILLIN] | – | 2 days - 1 week | yes | 0 | 0 | 0 | 7 | 0 | RC/CARBENICILLINE | – | 0 | 0 | 0 | 0 | 0 | – | 0% | 0 | 0 | 5% | –
8 | CC[C@H](C)C(=O)O[C@H]1C[C@H](O)C=C2C=C[C@H](C)[C@H](CC[C@@H](O)C[C@@H](O)CC(=O)O)[C@H]21 [PRAVASTATIN] | 0 | 1 week - 20 weeks | yes | 0 | 0 | 1 | 50 | 0 | AC_ANTI-N/-MF | 22.5% | 0 | 0 | – | 3 | 0 | – | – | 7 | 3 | – | Hepatotoxicity (acute) ([17]; Liver): 1.1%
9 | O=C1OCCN1/N=C/c1ccc([N+](=O)[O-])o1 [FURAZOLIDONE] | – | – | yes | 0 | 0 | 0 | 1 | 0 | RC/NITROFURANTOINE | – | – | 0 | 0 | 1 | 0 | Allergic | 0% | 3 | 3 | 0% | –
